Patent publication US20070231269A1, “Analgesics” (IONIX PHARMACEUTICALS LIMITED, priority 2002, published 2007)

Assay: Solubility of buprenorphine hydrochloride in pectin solutions (saturated solution, hplc)
Conditions: for solubility: 18 °C, thermodynamic from solid; for Buprenorphine detected: solubility, 20 mg/ml pectin, pH 3-6, 18° C., expressed as buprenorphine free base

CO[C@]12CCC3(C[C@@H]1[C@](C)(O)C(C)(C)C)[C@H]1Cc4ccc(O)c5c4[C@@]3(CCN1CC1CC1)[C@H]2O5 [Buprenorphine, 5α,7α(S)-17-(cyclopropylmethyl)-α-(1,1-dimethylethyl)-4,5-epoxy-18,19-dihydro-3-hydroxy-6-methoxy-α-methyl-6,14-ethenomorphinan-7-methanol]
solubility (aqueous with cosolvent or surfactant or cyclodextrin): > 10000 µg/mL
solubility (pH 4.5, aqueous with cosolvent or surfactant or cyclodextrin): < 10000 µg/mL
Buprenorphine detected (dextrose 0-50 mg/ml): not affected significantly
Buprenorphine detected (mannitol 0-50 mg/ml): not affected significantly
